What was measured:
Type in all cases: in vivo
Pharbitis purpurea = experiment: Post-emergence herbicidal action, PHBPU
Summary of the method: (§1)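 Sandy loam, greenhouse; one-leaf stage (2–3 wk after sowing); foliar spray of WP or EC, 600–800 l/ha water + 0.2% wetter; visual rating at ~3 wk vs untreated, % effect.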

Abutilon theophrasti = experiment: Pre-emergence herbicidal action, ABUTH; parameters: key to Herbicidal action against ABUTH: % activity: 100 = plants have died, 0 = like control plants; conditions: for herbicidal action ABUTH / herbicidal activity ABUTH: dosage 320 g/ha; for herbicidal activity ABUTH: scored visually after 3 weeks vs untreated controls (100% = plants have died); for Herbicidal action against ABUTH: comparative experiment
Summary of the method: (§2)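 Pre-emergence, sandy loam soil; WP/EC formulation applied to covering soil surface, 600–800 l/ha water + 0.2% wetter; greenhouse, 3 wk; visual % damage vs untreated (0–100%).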

Veronica persica = experiment: Post-emergence herbicidal action, VERPE; parameters: key: % herbicidal action vs untreated; 100 = plants died, 0 = like control; conditions: for Herbicidal action against VERPE: comparative experiment
Summary of the method: as §1

Amaranthus retroflexus [1] = experiment: Pre-emergence herbicidal action, AMARE; parameters: key to Herbicidal action against AMARE: % activity: 100 = plants have died, 0 = like control plants; conditions: for herbicidal action AMARE / herbicidal activity AMARE: dosage 320 g/ha; for herbicidal activity AMARE: scored visually after 3 weeks vs untreated controls (100% = plants have died); for Herbicidal action against AMARE: comparative experiment, 20 g of a.i./ha
Summary of the method: as §2

Stellaria media = experiment: Post-emergence herbicidal action, STEME; parameters: key: % herbicidal action vs untreated; 100 = plants died, 0 = like control; conditions: for Herbicidal action against STEME: comparative experiment, 5 g of a.i./ha
Summary of the method: as §1

Amaranthus retroflexus [2] = experiment: Post-emergence herbicidal action, AMARE; parameters: key: % herbicidal action vs untreated; 100 = plants died, 0 = like control; conditions: for Herbicidal action against AMARE: comparative experiment
Summary of the method: as §1

[3] = post-emergence, 20 g of a.i./ha

SMILES	herbicidal action PHBPU (Pharbitis purpurea; Dosage 80 g/ha)	herbicidal action VERPE (Veronica persica; Dosage 80 g/ha)	herbicidal action STEME (Stellaria media; Dosage 80 g/ha)	herbicidal action AMARE (Amaranthus retroflexus [2]; Dosage 80 g/ha)	herbicidal action PHBPU (Pharbitis purpurea; post-emergence, dosage 80 g/ha)	herbicidal activity ABUTH (Abutilon theophrasti)	herbicidal action VERPE (Veronica persica; post-emergence, dosage 80 g/ha)	herbicidal activity AMARE (Amaranthus retroflexus [1])	herbicidal action STEME (Stellaria media; post-emergence, dosage 80 g/ha)	herbicidal action AMARE (Amaranthus retroflexus [2]; post-emergence, dosage 80 g/ha)	other results
Cc1ccc(C(=O)Nc2nnnn2C)c(Cl)c1C[S+](C)[O-] (racemic) [Example 1-288]	90	100	100	100	–	–	–	–	–	–	herbicidal action ABUTH (Abutilon theophrasti): 90%; herbicidal action AMARE (Amaranthus retroflexus [1]): 100%
CC[S+]([O-])Cc1c(C(F)(F)F)ccc(C(=O)Nc2nnnn2C)c1Cl (racemic) [Example 1-300]	–	–	–	–	90%	100%	100%	100%	100%	100%	–
Cn1nnnc1NC(=O)c1ccc(C(F)(F)F)c(C[S+]([O-])C2CC2)c1Cl (racemic) [Example 1-303]	–	–	–	–	100%	100%	100%	100%	100%	100%	–
COCC[S+]([O-])Cc1c(C(F)(F)F)ccc(C(=O)Nc2nnnn2C)c1Cl (racemic) [Example 1-306]	90	90	90	100	–	100%	–	100%	–	–	–
Cn1nnnc1NC(=O)c1ccc(C(F)(F)F)c(C[S+]([O-])CC(F)(F)F)c1Cl (racemic) [Example 1-312]	–	–	–	–	100%	100%	90%	100%	100%	100%	–
Cn1nnnc1NC(=O)c1ccc(I)c(C[S+](C)[O-])c1Cl (racemic) [Example 1-363]	–	–	–	–	90%	100%	100%	100%	100%	100%	Herbicidal action against ABUTH (Abutilon theophrasti; 20 g of a.i./ha): 100; Herbicidal action against AMARE (Amaranthus retroflexus [1]): 100
CC[S+]([O-])Cc1c(C(F)(F)F)ccc(C(=O)Nc2nnnn2C)c1Br (racemic) [Example 1-384]	–	–	–	–	90%	100%	100%	100%	90%	90%	Herbicidal action against ABUTH (Abutilon theophrasti; 80 g of a.i./ha): 100; Herbicidal action against VERPE (Veronica persica; [3]): 100; Herbicidal action against AMARE (Amaranthus retroflexus [2]; [3]): 90
CSCc1c(C(F)(F)F)ccc(C(=O)Nc2nnnn2C)c1C [Example 1-83]	–	–	–	–	100%	100%	100%	100%	100%	100%	–
CCS(=O)(=O)Cc1c(C(F)(F)F)ccc(C(=O)Nc2nnnn2C)c1C [Example 1-88]	90	100	100	90	–	–	–	–	–	–	herbicidal action ABUTH (Abutilon theophrasti): 100%; herbicidal action AMARE (Amaranthus retroflexus [1]): 100%
Cc1c(C(=O)Nc2nnnn2C)ccc(C(F)F)c1C[S+](C)[O-] (stereo not shown) [Example 1-108]	90	100	100	100	–	–	–	–	–	–	herbicidal action ABUTH (Abutilon theophrasti): 100%; herbicidal action AMARE (Amaranthus retroflexus [1]): 100%
COc1c(C(=O)Nc2nnnn2C)ccc(C(F)(F)F)c1C[S+](C)[O-] (stereo not shown) [Example 1-135]	90	100	90	100	–	–	–	–	–	–	herbicidal action ABUTH (Abutilon theophrasti): 100%; herbicidal action AMARE (Amaranthus retroflexus [1]): 100%
CSc1c(C(=O)Nc2nnnn2C)ccc(C(F)(F)F)c1C[S+](C)[O-] (stereo not shown) [Example 1-162]	–	–	–	–	100%	100%	100%	100%	100%	100%	Herbicidal action against ABUTH (Abutilon theophrasti; 20 g of a.i./ha): 100; Herbicidal action against AMARE (Amaranthus retroflexus [1]): 100
CSc1c(C(=O)Nc2nnnn2C)ccc(C(F)F)c1C[S+](C)[O-] (stereo not shown) [Example 1-171]	90	100	100	100	–	100%	–	100%	–	–	–
CCSCc1c(C(F)(F)F)ccc(C(=O)Nc2nnnn2C)c1SCC [Example 1-182]	90	100	100	90	–	100%	–	100%	–	–	Herbicidal action against VERPE (Veronica persica; post-emergence, 5 g of a.i./ha): 100; Herbicidal action against AMARE (Amaranthus retroflexus [1]): 70; Herbicidal action against STEME (Stellaria media; post-emergence): 90; Herbicidal action against AMARE (Amaranthus retroflexus [2]; post-emergence, 5 g of a.i./ha): 80
CSCc1c(C)ccc(C(=O)Nc2nnnn2C)c1Cl [Example 1-287]	–	100	100	100	–	–	–	–	–	–	herbicidal action ABUTH (Abutilon theophrasti): 100%; herbicidal action AMARE (Amaranthus retroflexus [1]): 90%
CCSCc1c(C(F)(F)F)ccc(C(=O)Nc2nnnn2C)c1Cl [Example 1-299]	–	–	–	–	90%	100%	100%	100%	100%	100%	Herbicidal action against ABUTH (Abutilon theophrasti; 20 g of a.i./ha): 90; Herbicidal action against VERPE (Veronica persica; post-emergence, 5 g of a.i./ha): 100; Herbicidal action against STEME (Stellaria media; post-emergence): 100
Cn1nnnc1NC(=O)c1ccc(C(F)(F)F)c(CSC2CC2)c1Cl [Example 1-302]	–	–	–	–	100%	100%	90%	100%	100%	100%	–
Cn1nnnc1NC(=O)c1ccc(C(F)(F)F)c(CS(=O)(=O)C2CC2)c1Cl [Example 1-304]	–	–	–	–	100%	100%	100%	100%	100%	100%	–
COCCSCc1c(C(F)(F)F)ccc(C(=O)Nc2nnnn2C)c1Cl [Example 1-305]	–	–	–	–	100%	100%	90%	100%	100%	100%	–
Cn1nnnc1NC(=O)c1ccc(C(F)(F)F)c(CSCC(F)(F)F)c1Cl [Example 1-311]	100	100	100	100	–	100%	–	100%	–	–	–
Cn1nnnc1NC(=O)c1ccc(C(F)(F)F)c(CSCC2CC2)c1Cl [Example 1-314]	–	–	–	–	100%	100%	100%	100%	100%	100%	–
Cn1nnnc1NC(=O)c1ccc(C(F)(F)F)c(CS(=O)(=O)CC2CC2)c1Cl [Example 1-316]	90	100	100	100	–	100%	–	100%	–	–	–
CCS(=O)(=O)Cc1c(C(F)F)ccc(C(=O)Nc2nnnn2C)c1Cl [Example 1-325]	100	100	100	–	–	100%	–	100%	–	–	–
Cn1nnnc1NC(=O)c1ccc(I)c(CS(C)(=O)=O)c1Cl [Example 1-364]	–	100	100	100	–	100%	–	100%	–	–	Herbicidal action against AMARE (Amaranthus retroflexus [1]): 100
CCCn1nnnc1NC(=O)c1ccc(C(F)(F)F)c(CSCC)c1C [Example 3-86]	90	80	100	–	–	–	–	–	–	–	herbicidal action ABUTH (Abutilon theophrasti): 100%; herbicidal action AMARE (Amaranthus retroflexus [1]): 100%
CCCn1nnnc1NC(=O)c1ccc(C(F)(F)F)c(C[S+](C)[O-])c1OC (stereo not shown) [Example 3-135]	90	–	100	100	–	–	–	–	–	–	herbicidal action ABUTH (Abutilon theophrasti): 100%; herbicidal action AMARE (Amaranthus retroflexus [1]): 100%
CCCn1nnnc1NC(=O)c1ccc(C(F)(F)F)c(CS(=O)(=O)CC)c1Cl [Example 3-301]	100	80	100	–	–	–	–	–	–	–	herbicidal action ABUTH (Abutilon theophrasti): 100%; herbicidal action AMARE (Amaranthus retroflexus [1]): 100%
CCCn1nnnc1NC(=O)c1ccc(C(F)F)c(CS(=O)(=O)CC)c1Cl [Example 3-325]	90	–	100	–	–	100%	–	100%	–	–	–

— patent US12492173B2, “Herbicidal substituted N-tetrazolyl aryl carboxamides” (Bayer Aktiengesellschaft, priority 2019, dated 2025)
